Experimental data published in article PMC12221113, “Deferasirox Derivatives as Inhibitors of Kallikrein‐Related Peptidases Associated to Neurodegenerative Diseases” (Chemmedchem, 2025).
Read-outs that look alike come from different tables or passages of the source. Each block holds one molecule with its values, some of them ahead of it.

Key:
[1] = molecular target: T1, KLK8 (Homo sapiens, UniProt O60259); assay: KLK8 fluorogenic enzyme inhibition assay (Boc-VPR-AMC)
T1 sequence (O60259 33-260): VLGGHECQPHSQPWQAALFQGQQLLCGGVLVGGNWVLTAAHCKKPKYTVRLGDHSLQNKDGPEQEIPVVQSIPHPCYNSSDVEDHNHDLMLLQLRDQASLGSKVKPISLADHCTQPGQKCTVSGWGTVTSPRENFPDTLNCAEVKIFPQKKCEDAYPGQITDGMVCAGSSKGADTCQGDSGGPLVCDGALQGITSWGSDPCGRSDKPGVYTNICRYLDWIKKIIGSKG
Description: (§1) All enzyme stocks were stored at −20 °C and purchased from R&D Systems as proenzymes (KLK6, KLK8, KLK13) or as mature and active forms (KLK5). Activation of KLK6, KLK8, and KLK13 is performed in optimized buffers. The activation reaction is initiated by Lysyl‐Endopeptidase at 2.5 mU mL^−1 (Wako Bioproducts). The activation reaction is stopped by diluting the enzyme to 0.5 μg mL^−1 in assay buffer (50 mM Tris, 1 M Citrate, 0.05% w/v Brij‐35, pH 8) to obtain an active enzyme stock. KLK1 was purchased from R & D Systems as pro‐KLK1. Activation of KLK1 is performed in 50 mM Tris‐HCl, 10 mM CaCl2, 150 mM NaCl, 0.05% Brij‐35, pH 7.5. The activation reaction is initiated by bacterial thermolysin at 0.4 μg mL^−1 (Sigma‐Aldrich) and stopped by addition of 100 mM EDTA (Sigma‐Aldrich) to obtain an active KLK1 stock at the same concentration of 100 μg mL^−1. […] All enzyme stocks were stored at −20 °C. H‐PFR‐AMC (KLK1), Boc‐VPR‐AMC (KLK5, KLK8, KLK13), Boc‐QAR‐AMC (KLK6, Plasmin), substrates were purchased from Bachem. […] Plasmin (Sigma‐Aldrich) was purchased in mature and active form.
(§2) Compounds were screened on KLKs using a BMG Fluostar microplate reader (black 96‐well microplates). Hit compounds were screened on the selected group of enzymes using optimized concentrations and buffers (KLK1 0.8 nM, KLK4 10 nM, KLK5 0.2 nM; KLK6 1.9 nM; KLK7 6 nM; KLK8 0.2 nM; KLK11 5.2 nM, KLK13 0.47 nM, KLK14 2.5 nM, plasmin 3.3 nM, thrombin 0.1 nM, tissue‐plasminogen activator (tPA) 0.1 nM, matriptase 1 nM, cathepsin L 2 nM) either in absence or prior preincubation in the presence of 100 μM of Fe^3+.
(§3) The proteases are first preincubated for 15 min with each compound (50 and 100 μM) or with DMSO (<2%, negative control) in a total volume of 85 μL of 50 mM Tris buffer, 1 M citrate, 0.05% Brij‐35, pH 7, 37 °C. The reaction is triggered by the appropriate substrate at the optimized concentration in 15 μL of 50 mM Tris buffer, 1 M citrate, 0.05% Brij‐35, pH 8 (H‐PFR‐AMC 100 μM; Boc‐VPR‐AMC 100 μM; Boc‐QAR‐AMC 100 μM; Meo‐Suc‐RPY‐AMC 150 μM, Z‐LR‐AMC 100 μM, Z‐GGR‐AMC 100 μM) and followed for 30 min at 37 °C. […] The release of the AMC fluorescent group is detected using the following wavelengths: λex = 360 nm and λem = 460 nm. The percent inhibition is calculated from Equation (1) where V 0 is the initial rate of the DMSO control, the initial rate in the presence of the inhibitor V i. (1) %inhibition=(1−(vi/v0))×100
(§4) The equation is entered in the Kaleidagraph 4.5 software for curve fitting f([I]) = % Inhibition, where [I] is the inhibitor concentration.
(§5) The mechanism of inhibition was determined by varying substrate and inhibitor concentrations, the type of inhibition and inhibition parameter (Ki or Ki′) are determined by Dixon's plots.

[2] = Calcein transchelation (calcein release) assay; type: physicochemical; settings: calcein 100 nM, 4 h at room temperature; estimation, assay not fully quantitative; read-out: Apparent affinity (pseudo‐affinity constant Kd for Fe3+)
[3] = molecular target: KLK1 (Homo sapiens, UniProt P06870); assay: KLK1 fluorogenic enzyme inhibition assay (H-PFR-AMC)
Description: as §1, §2, §3, §4, §5

[4] = UV–vis spectroscopy of Fe3+ chelation and complex stability; type: physicochemical; settings: activity buffer pH 7.4, 1:1 ratio, t = 0 to 240 min
Description: UV–vis analysis of DFX was first performed to monitor the chelation process and the stability of the Fe^3+ complex over time at a 1:1 ratio, typically representing the duration of inhibition assay (30 min to 4 h) (Figure S1, Supporting Information). In these conditions of pH (7.4) and ligand‐to‐iron ratio and according to Steinhauser et al. the main species in solution is assigned to [Fe(DFX)2]^3−.^[ [49] ^] Indeed, we aimed to explore not only the chelation properties but also the impact of the chelated species on enzyme inhibition.
2.c. Chelation properties, iron interactions, and selectivity profiles of selected compounds targeting KLK activity.
Figure S2: Stability of the chelated species as monitored by spectrophotometry. UV/VIS spectra of molecules alone using activity buffer at pH 7.4 (in orange at 500 µM) or in the presence of FeCl3 (ratio of 1:1) at different times (t = 0 in red, 30 min in black, 60 min in blue and 240 min in green). The purple trace corresponds to iron only at 500 µM All data are representative of 2 independent experiments performed in duplicate. […]

[5] = molecular target: KLK6 (Homo sapiens, UniProt Q92876); assay: KLK6 fluorogenic enzyme inhibition assay (Boc-QAR-AMC)
Description: as §1, §2, §3, §4, §5

[6] = IC50 KLK1, 15 min preincubation at 37 °C, NI = not a hit (not above 50% inhibition at 50 μM)
[7] = IC50 KLK8, 15 min preincubation at 37 °C, NI = not a hit (not above 50% inhibition at 50 μM)

KLK1, sequence (P06870 25-262): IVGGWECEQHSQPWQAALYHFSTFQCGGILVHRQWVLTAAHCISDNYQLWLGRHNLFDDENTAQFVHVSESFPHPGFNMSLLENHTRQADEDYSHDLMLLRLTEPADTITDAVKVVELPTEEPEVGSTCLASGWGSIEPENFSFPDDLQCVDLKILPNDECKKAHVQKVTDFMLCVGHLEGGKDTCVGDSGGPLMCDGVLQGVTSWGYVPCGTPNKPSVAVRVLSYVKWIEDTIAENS

SMILES: CCOC(=O)[C@H]1CC[C@H](n2nc(-c3ccccc3O)nc2-c2ccccc2O)CC1 [3fa]
- IC50 [1]: > 50 µM

SMILES: O=C(O)[C@H]1CC[C@H](n2nc(-c3ccccc3O)nc2-c2ccccc2O)CC1 [3fb]
- IC50 [1]: > 50 µM

SMILES: CCOC(=O)Cn1nc(-c2ccccc2O)nc1-c1ccccc1O [3g]
- IC50 [1]: > 50 µM

SMILES: O=C(O)Cn1nc(-c2ccccc2O)nc1-c1ccccc1O [3h]
- Kd [2]: 0.22 ± 0.024 nM
- IC50 [1]: > 50 µM

SMILES: COC(=O)c1ccc(-n2nc(-c3ccccc3O)nc2-c2ccccc2O)cc1 [3i]
- IC50 [1]: > 50 µM

SMILES: COC(=O)CNC(=O)c1ccc(-n2nc(-c3ccccc3O)nc2-c2ccccc2O)cc1 [3ja]
- Kd [2]: 0.175 ± 0.015 nM
- IC50 [1]: > 50 µM

SMILES: O=C(O)CNC(=O)c1ccc(-n2nc(-c3ccccc3O)nc2-c2ccccc2O)cc1 [3jb]
- Kd [2]: 0.078 ± 0.009 nM
- IC50 [1]: 27 ± 0.6 µM

SMILES: COC(=O)C(Cc1ccccc1)NC(=O)c1ccc(-n2nc(-c3ccccc3O)nc2-c2ccccc2O)cc1 (stereo not shown) [3ka]
- IC50 [1]: > 50 µM

SMILES: O=C(NC(Cc1ccccc1)C(=O)O)c1ccc(-n2nc(-c3ccccc3O)nc2-c2ccccc2O)cc1 (stereo not shown) [3kb]
- IC50 [1]: 24.8 ± 1.9 µM
- IC50 [3, 6]: 16.4 ± 1 µM

SMILES: COC(=O)C(Cc1c[nH]c2ccccc12)NC(=O)c1ccc(-n2nc(-c3ccccc3O)nc2-c2ccccc2O)cc1 (stereo not shown) [3la]
- Kd [2]: 0.13 ± 0.02 nM
- IC50 [1]: > 50 µM

SMILES: COC(=O)C1CCCN1C(=O)c1ccc(-n2nc(-c3ccccc3O)nc2-c2ccccc2O)cc1 (stereo not shown) [3ma]
- Kd [2]: 0.105 ± 0.022 nM
- IC50 [1]: > 50 µM

- IC50 [1, 7]: > 50 µM
SMILES: Oc1ccccc1-c1nc(-c2ccccc2O)n(-c2ccccc2)n1 [3n]
- Kd [2]: 0.081 ± 0.045 nM

SMILES: N#Cc1ccc(-n2nc(-c3ccccc3O)nc2-c2ccccc2O)cc1 [3o]
- IC50 [1]: > 50 µM

SMILES: Oc1ccccc1-c1nc(-c2ccccc2O)n(-c2ccc(Br)cc2)n1 [3p]
- IC50 [1]: > 50 µM

- IC50 [1, 7]: > 50 µM
SMILES: COc1ccc(-n2nc(-c3ccccc3O)nc2-c2ccccc2O)cc1 [3q]

SMILES: NS(=O)(=O)c1ccc(-n2nc(-c3ccccc3O)nc2-c2ccccc2O)cc1 [3s]
- IC50 [1]: > 50 µM

SMILES: O=S(=O)(O)c1ccc(-n2nc(-c3ccccc3O)nc2-c2ccccc2O)cc1 [3t]
- Kd [2]: 0.165 ± 0.017 nM
- IC50 [1]: 29.5 ± 1.4 µM
- UV–vis spectrum in the presence of FeCl3 (iron complex formation) [4]: appearance of an absorption band with a maximum at 468 nm

SMILES: NC(=O)c1ccc(-n2nc(-c3ccccc3O)nc2-c2ccccc2O)cc1 [3u]
- Kd [2]: 0.093 ± 0.007 nM
- IC50 [1]: 23.7 ± 2.3 µM

SMILES: Oc1ccccc1-c1nc(-c2ccccc2O)n(-c2ccc(-c3nnn[nH]3)cc2)n1 [3v]
- IC50 [1]: 44.1 ± 1.7 µM

- IC50 ([5]; read-out: Pseudo-IC50 of Fe3+ on KLK6, Figure S4 B, curve fit y=(100*M0)/(M0+M2)): 1320 µM
- IC50 ([1]; read-out: Pseudo-IC50 of Fe3+ on KLK8, Figure S4 C, curve fit y=(100*M0)/(M0+M2)): 1120 µM
- IC50 ([3]; read-out: Pseudo-IC50 of Fe3+ on KLK1, Figure S4 A, curve fit y=(100*M0)/(M0+M2)): 989 µM
SMILES: [Cl][Fe]([Cl])[Cl] [Fe3+]

SMILES: O=C(O)c1ccc(-n2nc(-c3ccccc3)nc2-c2ccccc2O)cc1 [compound 9]
- IC50 [5]: > 50 µM
- IC50 [1]: 46.8 ± 0.2 µM
- UV–vis spectrum in the presence of FeCl3 (iron complex formation) [4]: no changes in the absorption spectra
- IC50 [3, 6]: > 50 µM

SMILES: COc1ccc(-c2nc(-c3ccccc3O)n(-c3ccc(C(=O)O)cc3)n2)cc1 [compound 10]
- IC50 [5]: > 50 µM
- IC50 [1]: 33.4 ± 1.1 µM
- IC50 [3, 6]: > 50 µM

SMILES: COc1ccc(-c2nc(-c3ccccc3O)nn2-c2ccc(C(=O)O)cc2)c(O)c1 [compound 13]
- IC50 [5]: > 50 µM
- Kd [2]: 0.077 ± 0.019 nM
- IC50 [1]: 24.8 ± 1.3 µM
- UV–vis spectrum in the presence of FeCl3 (iron complex formation) [4]: a similar absorption band is observed
- IC50 [3, 6]: > 50 µM

SMILES: O=C(O)c1ccc(-n2nc(-c3ccccc3O)nc2-c2ccc(O)cc2O)cc1 [compound 14]
- IC50 [5]: > 50 µM
- IC50 [1]: 38.3 ± 3.5 µM
- IC50 [3, 6]: > 50 µM

- IC50 ([3]; read-out: IC50 KLK1, 15 min preincubation at 37 °C, NI = not a hit (not above 50% inhibition at 50 μM)): > 50 µM
SMILES: COc1ccc(-c2nc(-c3cccnc3O)n(-c3ccc(C(=O)O)cc3)n2)cc1 [compound 19]

SMILES: COc1ccccc1-c1nc(-c2ccccc2OC)n(-c2ccc(C(=O)O)cc2)n1 [compound 21]
- IC50 [5]: > 50 µM
- IC50 [1]: > 50 µM
- IC50 [3, 6]: > 50 µM

- IC50 [1, 7]: > 50 µM
SMILES: Oc1ccccc1-c1noc(-c2ccccc2O)n1 [compound 23]
